Experimental data: patent US20260209205A1, “CRYSTALLINE FORMS OF A TYK2 INHIBITOR AND USES THEREOF” (Alumis Inc., priority 2022, published 2026)
Where a name gives a salt, the structure may show the parent alone.

How the values were obtained:
Assay type in all cases: physicochemical
[1] = Dynamic vapor sorption (DVS) / hygroscopicity
[2] = Solid-state chemical and physical stability on storage
[3] = Interconversion studies of Form 1 and Form 2 stirred in solvents; conditions: isopropanol (50° C., 7 days), acetone (50° C., 3 days), acetone/water 9/1 v/v (50° C., 1 day; room temperature, 1 day)
Method: In interconversion studies, equal amounts of Form 1 and Form 2 were added in various solvents and stirred at various temperatures for several days.

[2H]C([2H])([2H])CC(=O)c1cnc(NC(=O)C2CC2)cc1Nc1cccc(-c2ncn(C([2H])([2H])[2H])n2)c1OC [Form 1, N-(4-((2-methoxy-3-(1-(methyl-d3)-1H-1,2,4-triazol-3-yl)phenyl)amino)-5-(propanoyl-3,3,3-d3)pyridin-2-yl) cyclopropanecarboxamide hydrochloride]
Hygroscopicity [1]: slightly hygroscopic | Form change after DVS analysis ([1]; after DVS analysis): No form change | DVS reversable total mass change ([1]; between about 0% to about 80% relative humidity (RH) at 25° C.): about 0.2 wt. % | DVS reversable total mass change ([1]; between about 0% to about 90% relative humidity (RH) at 25° C.): about 0.3 wt. % | Time chemically and physically stable in the solid form ([2]; 40° C./75% RH): at least 10 days | Time chemically and physically stable in the solid form ([2]; 60° C.): at least 10 days | Time chemically and physically stable ([2]; ambient temperature and humidity): at least 12 months | Relative stability of crystalline forms (form obtained from equal amounts of Form 1 and Form 2) [3]: more stable crystalline form
